# From patent US6043212A, “Recombinant C140 receptor, its agonists and antagonists, and nucleic acids encoding the receptor” (COR Therapeutics, Inc., priority 1995, dated 2000)
# Peptide text beside a SMILES is read from it.
# Tests used:
# [1] = Hypotensive activity: arterial pressure after injection into rat femoral vein; assay type: in vivo; settings: FIG. 7
# Method: The C140 agonist SLIGRL (SEQ ID NO: 23) was injected in 0.2 ml buffer at various concentrations into rat femoral vein and the arterial pressure was monitored.
# rat femoral vein = assay: Vasodilation of isolated rat femoral vein contracted with PGF2α (organ bath); settings: PGF2α 3×10^-5 M, test substance 10^-5 M
# Method: This effect was also shown by observing vasodilation as a result of stimulation of the rat femoral vein with the above agonist. Adult Sprague-Dawley rats were killed by exsanguination during diethylether anesthesia and the femoral vein was removed and dissected free from fat and connective tissue. Circular preparations of the vein were mounted in an organ bath (5 ml) on two L-formed metal holders (0.2 mm diameter). One of the metal holders was screwed into one of the levers of a Grass FTO C force displacement transducer. The bathing liquid was Kreb's Ringer solution containing 118 mM NaCl, 4.7 mM KCl, 2.5 mM CaCl2, 1.2 MM MgSO4, 24.8 mM NaHCO3, 1.2 mM KH2 PO4 and 5.6 mM glucose. The bathing fluid was continuously treated with 88.5% oxygen-11.5% CO2; the temperature was held at 37° C. The endothelium was removed by bubbling CO2 through the vessels. The basal tension was between 7.5 and 12 mN. The preparations were equilibrated for at least 1 hr before application of agonist and control substances.
# C140 receptor = biological target: T1, C140 receptor (Mus musculus, UniProt P55086); assay: Activation of frog oocytes injected with C140 receptor cRNA by proteases; assay type: cell-based; settings: FIG. 9c
# T1 construct: expressed in transfected cells; host or cells: frog oocytes injected with C140 receptor cRNA
# T1 sequence (P55086 26-399): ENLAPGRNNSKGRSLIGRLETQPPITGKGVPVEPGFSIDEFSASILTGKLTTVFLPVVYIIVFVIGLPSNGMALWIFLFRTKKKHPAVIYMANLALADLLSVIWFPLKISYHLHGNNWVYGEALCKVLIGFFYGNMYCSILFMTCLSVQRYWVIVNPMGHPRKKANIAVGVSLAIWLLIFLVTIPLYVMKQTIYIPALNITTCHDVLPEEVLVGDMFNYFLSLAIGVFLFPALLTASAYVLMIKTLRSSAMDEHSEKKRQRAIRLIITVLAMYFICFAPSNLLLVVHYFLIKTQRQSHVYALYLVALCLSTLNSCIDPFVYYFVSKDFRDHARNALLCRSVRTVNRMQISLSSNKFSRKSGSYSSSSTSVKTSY
# Text: FIGS. 9a and 9b show the ability of plasmin and kallikrein respectively to activate oocytes injected with C140 cRNA (open circles) or water (crosses) as control.
Activation of oocytes injected with C140 receptor cRNA versus substance K receptor cRNA (C140 receptor),Compound,Effect on arterial blood pressure ([1]; 0.2 ml buffer at 0.1 mM into femoral vein),Effect on arterial blood pressure ([1]; 0.2 ml buffer at 1 mM into femoral vein),"Effect on contraction induced by PGF2α (rat femoral vein; endothelium present, FIG. 8a)","Effect on contraction induced by PGF2α (rat femoral vein; endothelium removed, FIG. 8b)"
,CC[C@H](C)[C@H](NC(=O)[C@H](CC(C)C)NC(=O)[C@@H](N)CO)C(=O)NCC(=O)N[C@@H](CCCNC(=N)N)C(=O)N[C@@H](CC(C)C)C(=O)O [SLIGRL] (H-SLIGRL-OH),appreciable decrease in blood pressure,larger decreases,relaxed,not counteracted
differential effect,trypsin,,,,
